Reference: patent publication US20250345350A1, “TREATING PAIN ASSOCIATED WITH CENTRAL SENSITIZATION” (Medicon Pharmaceuticals, Inc., priority 2022, published 2025)

Assays:
COX-2 = target: T1, COX-2 (Homo sapiens, UniProt P35354); settings: background statement; cited from earlier work
T1 sequence (P35354 18-604): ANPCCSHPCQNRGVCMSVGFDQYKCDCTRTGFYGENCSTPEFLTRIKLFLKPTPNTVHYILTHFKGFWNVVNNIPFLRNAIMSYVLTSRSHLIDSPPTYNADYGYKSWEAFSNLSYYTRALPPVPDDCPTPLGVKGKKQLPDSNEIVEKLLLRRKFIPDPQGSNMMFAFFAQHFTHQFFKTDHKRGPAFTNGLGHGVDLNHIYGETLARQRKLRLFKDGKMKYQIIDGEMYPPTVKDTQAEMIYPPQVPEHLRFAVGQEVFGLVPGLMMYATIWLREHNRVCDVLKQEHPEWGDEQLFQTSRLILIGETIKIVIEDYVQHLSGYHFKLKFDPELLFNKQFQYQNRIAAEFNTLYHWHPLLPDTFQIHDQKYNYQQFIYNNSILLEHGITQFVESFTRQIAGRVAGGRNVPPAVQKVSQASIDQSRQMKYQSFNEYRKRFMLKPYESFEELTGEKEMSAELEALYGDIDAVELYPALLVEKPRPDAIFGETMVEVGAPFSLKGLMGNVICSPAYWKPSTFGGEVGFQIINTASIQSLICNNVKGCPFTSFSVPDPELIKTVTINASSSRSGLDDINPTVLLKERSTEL

[1] = test system: oxaliplatin-induced pain associated with central sensitization in C57BL/6J mice; assay: Mechanical allodynia (von Frey), oxaliplatin-induced pain, topical PS 8% (Example 2); assay type: in vivo, mouse
From the text: (§1) Food and water were available ad libitum.
Protocol for the Treatment of Established Pain Associated with Central Sensitization with PS
(§2) Paw withdrawn, licking or shaking were considered positive responses.

[2] = test system: chronic constriction injury-induced peripheral neuropathy in C57BL/6J mice; assay: PWT (von Frey), PTPN model, oral administration (Examples 9 and 10); settings: day 6; PS orally three times a day for 6 days at 100 mg/kg
Description: Group 1: ligation only (i.e, surgical control with no treatment, n=9) • 2. Group 2: vehicle (n=9) • 3.
Mechanical allodynia was determined using the method of von Frey filaments in line with that performed in the earlier Examples. The PWT test was performed on day 6. The mechanical threshold, expressed as g, indicates the force of the von Frey filament to which the animal reacted.

[3] = test system: paclitaxel-induced pain associated with central sensitization in C57BL/6J mice; assay: Mechanical allodynia (von Frey), paclitaxel-induced pain, topical PS 8% (Example 2); assay type: in vivo, mouse
From the text: as §1, §2

[4] = Preliminary in vivo evidence, PS to the ocular surface, corneal neuropathic pain (Example 22); settings: topical PS to the ocular surface

CCOP(=O)(OCC)OCCCCOC(=O)CC1=C(C)/C(=C/c2ccc([S+](C)[O-])cc2)c2ccc(F)cc21 (centres unmarked) [PS, phosphosulindac]
inhibition of COX-2 (COX-2): does not inhibit | mechanical allodynia score, mean±SEM ([1]; after PS treatment (day 22), PS 8% ointment 3x/day): 1.8 ± 0.09 g | mechanical allodynia score, mean±SEM ([1]; day -15 baseline of PS group): 1.76 ± 0.13 g | PWT, g Mean ± SEM [2]: 1.63 ± 0.38 g | mechanical allodynia score, mean±SEM ([3]; day 0 (initiation of treatment), paclitaxel-induced pain): 0.79 ± 0.08 g | mechanical allodynia score, mean±SEM ([3]; day 5, PS 8% ointment 3x/day to hind paws): 1.17 ± 0.07 g | mechanical allodynia score, mean±SEM ([3]; day 16, PS 8% ointment 3x/day to hind paws): 2.49 ± 0.18 g | analgesic effect on corneal neuropathic pain [4]: striking analgesic effect
